{
  "source": "paper PMC8575457",
  "about": "“Molecular reconstruction of recurrent evolutionary switching in olfactory receptor specificity” (eLife, 2021)",
  "assay_in_all_cases": "single sensillum extracellular recording, Ir decoder neuron",
  "conditions_in_all_cases": "1% v/v odor in water, 10 ul, 500 ms pulse; agonist",
  "key": {"DmelIr75b": {"biological_target": "T1, DmelIr75b (Drosophila melanogaster, UniProt A0A1S6EMU4)", "T1 construct": "gene IR75b", "T1 sequence (A0A1S6EMU4 1-609)": "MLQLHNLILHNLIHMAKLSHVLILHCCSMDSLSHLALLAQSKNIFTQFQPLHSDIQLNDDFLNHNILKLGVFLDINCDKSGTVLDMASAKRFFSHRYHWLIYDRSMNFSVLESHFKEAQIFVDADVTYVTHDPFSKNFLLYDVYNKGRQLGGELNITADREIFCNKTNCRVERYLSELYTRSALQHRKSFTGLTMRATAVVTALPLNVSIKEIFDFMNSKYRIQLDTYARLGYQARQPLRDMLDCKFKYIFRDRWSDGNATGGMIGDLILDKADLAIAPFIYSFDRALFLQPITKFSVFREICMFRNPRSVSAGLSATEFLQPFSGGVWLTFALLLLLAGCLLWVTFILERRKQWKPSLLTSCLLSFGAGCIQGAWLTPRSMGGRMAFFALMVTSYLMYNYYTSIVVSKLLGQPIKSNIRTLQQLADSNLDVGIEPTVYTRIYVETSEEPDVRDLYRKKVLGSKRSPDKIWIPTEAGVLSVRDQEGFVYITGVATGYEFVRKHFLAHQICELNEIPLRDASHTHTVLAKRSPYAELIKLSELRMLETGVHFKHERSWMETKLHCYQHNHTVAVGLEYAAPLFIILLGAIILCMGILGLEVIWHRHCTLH", "T1 sequence (Q9W365 18-936 partner)": "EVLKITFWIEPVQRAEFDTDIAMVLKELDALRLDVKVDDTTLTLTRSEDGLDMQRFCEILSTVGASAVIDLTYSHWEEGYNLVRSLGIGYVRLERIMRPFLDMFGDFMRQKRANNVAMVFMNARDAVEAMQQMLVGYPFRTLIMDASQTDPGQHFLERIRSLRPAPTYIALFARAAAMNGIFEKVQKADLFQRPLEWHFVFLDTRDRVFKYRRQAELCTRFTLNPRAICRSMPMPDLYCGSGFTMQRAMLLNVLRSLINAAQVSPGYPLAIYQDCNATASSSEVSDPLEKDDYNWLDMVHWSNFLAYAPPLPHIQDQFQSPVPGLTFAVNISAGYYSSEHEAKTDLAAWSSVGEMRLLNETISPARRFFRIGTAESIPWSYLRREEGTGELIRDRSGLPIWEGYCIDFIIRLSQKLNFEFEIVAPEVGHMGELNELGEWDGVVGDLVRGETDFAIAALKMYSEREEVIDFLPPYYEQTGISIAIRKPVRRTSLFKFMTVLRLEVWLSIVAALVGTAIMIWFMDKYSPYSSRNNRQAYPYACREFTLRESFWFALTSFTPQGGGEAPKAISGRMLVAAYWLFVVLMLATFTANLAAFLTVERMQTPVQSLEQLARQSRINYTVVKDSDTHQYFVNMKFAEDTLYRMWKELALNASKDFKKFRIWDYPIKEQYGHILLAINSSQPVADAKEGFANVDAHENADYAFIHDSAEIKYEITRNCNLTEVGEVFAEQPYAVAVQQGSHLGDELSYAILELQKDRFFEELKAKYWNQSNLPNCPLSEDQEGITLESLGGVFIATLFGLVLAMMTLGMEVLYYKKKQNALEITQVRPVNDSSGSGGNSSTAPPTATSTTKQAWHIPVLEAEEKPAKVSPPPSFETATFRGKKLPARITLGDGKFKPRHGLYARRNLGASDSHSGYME"}, "DmelIr75b^DsecS1": {"biological_target": "T2, DmelIr75b^DsecS1 (Drosophila melanogaster, UniProt A0A1S6EMU4, I210K/M217L/K220Q/N259S/I277M/F289L/Q291K/T523S, form not given)", "T2 construct": "gene IR75b; UAS transgene in Ir decoder neuron; with Ionotropic receptor 8a (D. melanogaster, endogenous)", "T2 sequence (A0A1S6EMU4 1-609 I210K/M217L/K220Q/N259S/I277M/F289L/Q291K/T523S)": "T1 sequence (A0A1S6EMU4 1-609) with I210K, M217L, K220Q, N259S, I277M, F289L, Q291K, T523S", "T2 sequence (Q9W365 18-936 partner)": "T1 sequence (Q9W365 18-936 partner)", "type": "cell-based"}, "DmelIr75a [1]": {"biological_target": "T3, DmelIr75a (Drosophila melanogaster, UniProt Q9VVL1, T289S/Q536K/F538L)", "T3 construct": "gene Ir75a; full-length cDNA, UAS transgene (attP40) expressed in D. melanogaster Ir decoder neuron (Ir84a-Gal4, Ir84a mutant) with endogenous Ir8a; predicted heterotetramer; with Ionotropic receptor 8a (D. melanogaster, endogenous)", "type": "cell-based"}, "DmelIr75a [2]": {"biological_target": "T4, DmelIr75a (Drosophila melanogaster, UniProt Q9VVL1, T289S/Q536K)", "T4 construct": "gene Ir75a", "T4 sequence (Q9VVL1 1-629 T289S/Q536K)": "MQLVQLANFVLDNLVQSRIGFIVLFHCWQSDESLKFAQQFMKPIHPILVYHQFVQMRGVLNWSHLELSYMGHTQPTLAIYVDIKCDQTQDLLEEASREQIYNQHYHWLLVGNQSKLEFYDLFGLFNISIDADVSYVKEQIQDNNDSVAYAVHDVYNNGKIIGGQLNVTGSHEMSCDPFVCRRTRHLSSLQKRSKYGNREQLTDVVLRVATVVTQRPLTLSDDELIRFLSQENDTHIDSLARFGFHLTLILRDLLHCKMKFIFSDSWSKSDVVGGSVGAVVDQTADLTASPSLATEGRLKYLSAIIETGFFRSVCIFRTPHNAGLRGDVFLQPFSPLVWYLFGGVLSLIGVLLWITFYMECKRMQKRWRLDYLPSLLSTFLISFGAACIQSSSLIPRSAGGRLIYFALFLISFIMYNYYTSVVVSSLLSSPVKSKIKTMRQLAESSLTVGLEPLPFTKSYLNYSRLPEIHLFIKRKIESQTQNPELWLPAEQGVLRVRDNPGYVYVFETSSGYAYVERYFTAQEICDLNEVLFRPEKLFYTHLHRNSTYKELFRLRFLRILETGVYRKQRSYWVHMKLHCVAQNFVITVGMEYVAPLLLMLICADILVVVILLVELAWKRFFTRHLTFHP", "T4 sequence (Q9W365 18-936 partner)": "T1 sequence (Q9W365 18-936 partner)"}},
  "note": "Numbering of substitutions follows the chain as printed.",
  "data": [
    {"smiles": "CCCC(=O)O", "note": "[C4, butyric acid]", "values": [
      {"measurement": "solvent-corrected response (spikes/s)", "setting": "DmelIr75b", "value": "still has robust sensitivity to C4, like DmelIr75b but unlike DsecIr75b"},
      {"measurement": "solvent-corrected response (spikes/s)", "setting": "DmelIr75b^DsecS1", "value": "this receptor still has robust sensitivity to C4"},
      {"measurement": "solvent-corrected response (spikes/s)", "setting": "DmelIr75a [1]", "value": "produced a receptor that faithfully recapitulated the response properties of DsecIr75a"},
      {"measurement": "solvent-corrected response (spikes/s)", "setting": "DmelIr75a [2]", "value": "broadly tuned receptor that responds maximally (albeit weakly) to C2, C3, and C4"}
    ]}
  ]
}
